In PubChem BioAssay (NCI) one finds GI50 and TGI data, which are given here for 9 compounds.

Structures are written as SMILES.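 Growth conditions: 96-well plates. Treatment: test compound, 48 hours, 5 concentrations. Analysis: linear interpolation between bracketing concentrations; unreached endpoints set to highest concentration. The concentration for 50% growth inhibition is given as GI50. TGI marks complete inhibition of growth.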

Holding throughout (test): NCI tumour cell line growth inhibition, 48 h
For assay [1], the system named is COLO 205 colon.
For assay [2], the system named is EKVX NSCLC.
Assay [3] deals with HOP-62 NSCLC.
Assay [4] relates to HOP-92 NSCLC.
Assay [5] concerns MOLT-4 leukemia.
The test system of assay [6] is OVCAR-4 ovarian.
Assay [7] relates to OVCAR-8 ovarian.
In assay [8] the test system is RPMI-8226 leukemia.
Assay [9] has as its system SF-295 CNS.
Assay [10] has as its system SN12C renal.

`CN1CCN(c2ccc(-c3cccc(CN4CCOCC4)c3)cc2NC(=O)c2c[nH]c(=O)cc2C(F)(F)F)CC1`: the GI50 is 17.8 µM in assay [1]; 69.7 µM in assay [2]; more than 100 µM in assay [3]; 10.7 µM in assay [4]; 19 µM in assay [5]; 55.9 µM in [6]. Moreover, the GI50 is 48.7 µM in assay [7], 38.2 µM in assay [8], 33.1 µM in [9] and more than 100 µM in assay [10]. Further, the TGI in [1] is more than 100 µM; in assay [2], more than 100 µM; in [3], more than 100 µM; in [4], more than 100 µM; in [5], 64 µM; in [6], more than 100 µM. In addition, the TGI in assay [7], in [8], in [9] and in assay [10] was more than 100 µM throughout.

As for `COc1ccc(C(=O)c2cc(C)c(OC)c(C)c2)c(OC)c1N(C(=O)CCl)C(=O)CCl`, the GI50 in assay [1] is 0.104 µM; in assay [2], 0.0792 µM; in assay [3] it was 0.0546 µM; in [4], 0.195 µM; in assay [5], 0.172 µM; in assay [6], 0.719 µM. Moreover, the GI50 is 0.062 µM in assay [7], 0.118 µM in assay [8], 0.0321 µM in assay [9] and 0.0831 µM in [10]. The TGI in assay [1] is 17.6 µM; in [2], 69 µM; in assay [3], 25 µM; in assay [4], 30.9 µM; in assay [5] it was 24.2 µM; in [6], more than 67 µM. The TGI in [7] is more than 92.4 µM; in assay [8], 15.1 µM; in [9], 15.5 µM; in [10], 20.9 µM.

As to `COc1ccccc1N1CCN(CCCOc2ccc(C(=O)/C=C3/C(=O)Nc4ccccc43)cc2)CC1`, the GI50 in assay [1] is 12.7 µM; in assay [2], 7.34 µM; in assay [3], 16.1 µM; in [4], 2.59 µM; in [5] it was 1.69 µM; in [6], 6.6 µM. The GI50 in [7] is 12 µM; in assay [8] it was 2.6 µM; in assay [9], 12.5 µM; in assay [10] it was 19.9 µM. In addition, the TGI came to 33.2 µM in assay [1]; 41.2 µM in [2]; 54.8 µM in [3]; 22.2 µM in [4]; 17.5 µM in [5]; 51.2 µM in assay [6]. Besides, the TGI in assay [7] is 55.5 µM; in [8] it was 28.6 µM; in [9], 32.4 µM; in assay [10], more than 100 µM.

With `C#CCN(Cc1nc2cc(C(F)(F)F)ccc2nc1-c1ccccc1)c1ccc(F)cc1`, the GI50 is 13.8 µM in assay [1]; 23.1 µM in assay [2]; 34.7 µM in assay [3]; 24 µM in [4]; 36.5 µM in assay [5]; 33.4 µM in [6]. Also, the GI50 is 29.4 µM in assay [7], 23.3 µM in assay [8], 51.4 µM in assay [9] and 30.8 µM in assay [10]. Besides, the TGI was 50.5 µM in assay [1]; 66.2 µM in assay [2]; more than 100 µM in [3]; 86.8 µM in assay [4]; more than 100 µM in assay [5]; more than 100 µM in assay [6]. Moreover, the TGI in [7] is more than 100 µM; in assay [8], 68.7 µM; in [9], more than 100 µM; in assay [10] it was 96 µM.

In the case of `COc1ccc2c(c1OC)C(C=C(c1ccccc1)c1ccccc1)CN(C)C2` (stereo not given), the TGI is 28.5 µM in [1]; more than 100 µM in [2]; 62.2 µM in assay [3]; 40.1 µM in [4]; 64.7 µM in assay [5]; more than 100 µM in assay [6]. The TGI in assay [7] is 67 µM; in [8], 50.8 µM; in assay [9], 80.3 µM; in [10], more than 100 µM.

As for `COC(=O)c1ccc(/C=C/S(=O)(=O)c2ccccc2)cc1`, the TGI in assay [1], in assay [2], in [3], in assay [4], in assay [5] and in [6] was more than 100 µM each time. Moreover, the TGI in [7], in [8], in assay [9] and in assay [10] was more than 100 µM throughout.

With `CSC1SCC2C(=O)N(C)C(C(C)C)C(=O)OCC(NC(=O)c3cnc4ccccc4n3)C(=O)NC(C)C(=O)N(C)C1C(=O)N(C)C(C(C)C)C(=O)OCC(NC(=O)c1cnc3ccccc3n1)C(=O)NC(C)C(=O)N2C` (stereo not given), the GI50 in assay [1], in assay [2], in assay [3], in assay [4], in assay [5] and in [6] was less than 0.001 µM in each case. Also, the GI50 in assay [7], in assay [8], in assay [9] and in assay [10] was less than 0.001 µM each time.

In the case of `Cc1cc(C)c(O)c(CNCCCNCc2cc(C)cc(C)c2O)c1`, the GI50 in assay [1] is 1.89 µM; in assay [2], 5.04 µM; in assay [3], 6.68 µM; in [4], 1.94 µM; in [5] it was 3.14 µM; in assay [6] it was 3.7 µM. The GI50 is 5.09 µM in assay [7], 3.03 µM in [8], 1.87 µM in [9] and 5.23 µM in assay [10]. Also, the TGI in assay [1] was found to be 3.89 µM; in assay [2], 20.2 µM; in assay [3], 21.8 µM; in assay [4], 7.23 µM; in assay [5], 10.2 µM; in assay [6], 16.1 µM. In addition, the TGI worked out at 20.3 µM in assay [7], 8.72 µM in [8], 3.81 µM in assay [9] and 18.8 µM in assay [10].

For the compound `N/C(=N\N=C\c1ccc(O)c(O)c1)NO`, the TGI in assay [1], in [2], in assay [3], in assay [4], in assay [5] and in [6] was more than 100 µM in each case. Moreover, the TGI in assay [7], in assay [8], in assay [9] and in assay [10] was more than 100 µM in each case.
